How the values were obtained:
[1] = tested on: PR target gene expression; experiment: Global gene expression analysis (Illumina HT-12v4) in T47D cells expressing WT or K388R PR-B; type: cell-based, human; settings: T47D KR PR, antiprogestin 10^-7 M, 6 hours
Experimental: For genome-wide microarray expression analysis, T47D cells expressing pIRES-neo3 empty vector, WT PR, or K388R PR were serum starved in modified improved minimum essential media (IMEM) (Gibco, ThermoFisher Scientific, Waltham, Mass.) for one day before treatment. Eight groups were treated with vehicle control, progesterone (10^−8 M), mifepristone (10^−7 M), aglepristone (10^−7 M), onapristone (10^−7 M), or combined treatment of progesterone+mifepristone, progesterone+aglepristone, or progesterone+onapristone for six hours before RNA extraction using a RNeasy kit (QIAgen). DNase I treated (QIAgen) RNA samples from triplicate experiments were prepared for expression analysis using the Illumina HT-12v4 bead chip platform according to standard protocols. Raw data from agonist-treated cells (progesterone or R5020) collected from two identically performed independent experiments (from this study and a previous study: GSE34148 (Knutson et al. Breast Cancer Res 2012, 14:R95)) was combined, normalized, and batch-corrected to ensure that gene expression values were informative across samples from separate experiments. Data were analyzed within multiple common R (R Core Team: R: A language and environment for statistical computing. R Foundation for Statistical Computing, Vienna, Austria 2015, [available on the world wide web at r-project.org/]) and Bioconductor (Gentleman et al. Genome Biol 2004, 5:R80) packages. Raw intensities were log 2 transformed and quantile normalized using lumi (Du et al. Bioinformatics 2008, 24:1547-1548), batch corrected using sva (Leek et al.: sva: Surrogate Variable Analysis. R package version 3.18.0.), and multiple probes for a single gene were collapsed using genefilter (Gentleman et al.: genefilter: genefilter: methods for filtering genes from high-throughput experiments. R package version 1.52.1). Differentially expressed genes (pairwise comparisons between all eight groups) were analyzed in limma (Smyth: Limma: linear models for microarray data. In: Bioinformatics and computational biology solutions using R and Bioconductor. edn.: Springer; 2005: 397-420), where empirical Bayes was used to better estimate the variance of the genes. Biological comparisons (for example, R5020/vehicle) were presented as log 2 fold change including the Benjamini and Hochberg (BH) adjusted P value (Benjamini et al. J Roy Stat Soc B Met 1995, 57:289-300) to account for multiple hypothesis testing. Expression data is available in the GEO database, accession: GSE94363.
Normalized gene expression data were filtered to isolate only high variance genes using the bioconductor package genefilter (Gentleman et al.: genefilter: genefilter: methods for filtering genes from high-throughput experiments. In., R package version 1.50.0 edn: R package version 1.50.0) using interquartile range cutoff value of 0.85. Non-negative matrix factorization (NMF) was performed within R using the NMF package version 0.20.5 (Gaujoux et al. BMC bioinformatics 2010, 11:367) where matrix factors were rank (2-10) and algorithm (brunet or snmf/r) optimized using the nmf function with parameters nrun=30 and seed=123456. […] Clustering and plots were performed in R (NMF package, a heat map function) using Euclidean distance and UPGMA (average) linkage.
PR ligand-mediated promoter selectivity remains understudied, especially in the context of antiprogestins and posttranslationally modified PR species. […]

[2] = tested on: PR Ser294 phosphorylation; experiment: PR Ser294 phosphorylation in T47D cells (Western blotting, immunofluorescence); type: cell-based, human; settings: T47D cells expressing WT or KR PR
Experimental: T47D human breast cancer cell lines engineered to stably express PR variants (null, WT, K388R, or S294A) were previously described (Knutson et al. Breast Cancer Res 2012, 14:R9). T47D cells were maintained in complete minimal essential medium (cMEM) supplemented with 5% fetal bovine serum (FBS), 1% non-essential amino acids (NEAA), 1% penicillin/streptomycin, 6 ng/ml insulin (CellGro, Manassas, Va., USA, catalog #10-010-CV). T47D cells described above were engineered to also stably express RUNX2 shRNAs via the pLKO.1 knockdown expression vector system, which required 25 μg/ml puromycin for the vector. In various experiments, cells or explants were treated with E2, ICI 182 780, R5020, mifepristone, aglepristone, or onapristone (Arno Therapeutics, Inc., Flemington, N.J.).
Immunocytochemistry was performed on T47D cells expressing PR variants to measure total- and phospho-Ser294 PR levels. 500,000 cells were grown on coverslips in 6-well plates, starved in IMEM plus 5% charcoal stripped FBS, treated, and fixed with 4% paraformaldehyde for 20 min. The cells were permeabilized with 0.3% Triton-X100 before incubating with total-PR (clone Ab8, ThermoFisher Scientific, Waltham, Mass.) or custom phospho-Ser294-PR (clone 8508) antibodies. Cells were incubated with fluorescent secondary antibodies (Alexa Fluor 488) and DAPI mounting medium (Life Technologies, ThermoFisher Scientific, Waltham, Mass.) before visualizing on a Zeiss microscope with A4 and L5 filter cubes. Immunoblotting was performed as previously described (Daniel et al. Mol Endocrinol 2007, 21:2890-2906).
In addition, extensive luminal breast cancer heterogeneity may limit the ability to observe a subset of PR-driven breast cancers without patient selection. In this case, PR target gene expression may provide an accurate means of predicting which breast tumors are likely to be influenced by PR-driven biological pathways enacted by active phospho-Ser294 PRs. To probe changes in PR target gene expression in the presence or absence of commonly used PR ligands (R5020, RU486), including diverse antiprogestins (aglepristone, onapristone) currently in development for clinical use, the well characterized model system of T47D breast cancer cells, stably expressing either unmodified wild-type (WT) PR-B or a transcriptionally hyperactive form of deSUMOylated K388R PR-B (KR; this receptor faithfully mimics phosphorylated PR-B with regard to target gene selection) were used (Knutson et al. Pharmacology & therapeutics 2014, 142:114-125; Daniel et al. Mol Endocrinol 2007, 21:2890-2906). Whether the antiprogestins mifepristone (also called RU486), aglepristone, or onapristone alter PR Ser294 phosphorylation were tested in these T47D breast cancer models. Cells were treated for 1 hour with vehicle, progesterone, mifepristone, aglepristone, or onapristone and whole cell lysates were processed for Western blotting or immunofluorescence (IF) analysis (FIG. 4A, B). […] Greater loss of total KR PR protein was also apparent in the presence of progesterone and selected antiprogestins relative to liganded WT PR, consistent with increased turnover of deSUMOylated active receptors relative to intact WT PRs.

breast cancer = settings: women receiving tamoxifen; cited from earlier work
T47D cells = experiment: Mammosphere formation in T47D cells; type: cell-based, human; settings: T47D EV, WT, KR or S294A PR-B; estrogen 1 nM, progesterone 10 nM; 14 days
Experimental: Primary Mammospheres: Adherent cells were washed with PBS and dissociated enzymatically in 0.25% trypsin-EDTA (Invitrogen Corporation, Carlsbad, Calif.). Cells were sieved through a 40-μm sieve (BD FALCON, BD Biosciences, Bedford, Mass.) and analyzed microscopically for single-cellularity. Single cells were plated in ultra-low attachment plates (Corning, Inc., Corning, N.Y.) and cultured in a humid incubator. Cells were grown in a serum-free mammary epithelial basal medium (MEBM; Lonza Group, Basel, Switzerland) containing 1% B27 Supplement (Invitrogen Corporation, Carlsbad, Calif.), 1% penicillin-streptomycin (Invitrogen Corporation, Carlsbad, Calif.), 5 μg/ml insulin (Invitrogen Corporation, Carlsbad, Calif.), 20 ng/ml EGF (Sigma-Aldrich, St. Louis, Mo.), 1 ng/ml hydrocortisone (Sigma-Aldrich, St. Louis, Mo.), and 100 μM β-mercaptoethanol. […] Mammosphere Forming Efficiency (MFE) % was calculated by the number of mammospheres per well/number of cells seeded per well.
Secondary Mammospheres: Primary mammospheres were collected by centrifugation (5 min, 1000 rpm), and dissociated enzymatically in 0.25% typsin-EDTA. Cells were sieved through a 40-μm tip strainer (Bel-Art SP Scienceware, South Wayne, N.J.) and analyzed microscopically for single-cellularity. […] Mammosphere Forming Efficiency (MFE) % was calculated by the number of mammospheres per well/number of cells seeded per well. […]

[3] = tested on: PR Ser294 phosphorylation; experiment: Breast tumor explants, phospho-Ser294 PR IHC; type: cell-based, human; settings: progesterone 10 nM plus U0126 (1 nM as printed elsewhere in the source), 2 hours
Text: De-identified breast tumor samples were collected after surgery and immediately processed for tissue explant maintenance on sponges in cell culture medium, as previously described (Ravindranathan et al. Nature Communications 2013, 4:1923). Samples were derived from six patients pathologically diagnosed with invasive ductal carcinoma (IDC) and scored positive for ER (94-100%) and PR (1-100%), and negative for HER2 expression. […] In additional experiments, six explants were similarly treated with estrogen or progesterone (2 hours) but in combination with 1 uM U0126 (to inhibit ERKs 1/2) and phospho-Ser294 PR levels were measured by IHC.
ER+ luminal tumors were maintained as explants as above and instead treated with either vehicle or progesterone (10 nM) for 2 hours in the presence or absence of the MEK1/2 inhibitor U0126 (1 nM) prior to IHC staining using specific antibodies for total and phospho-Ser294 PR as well as ER-alpha and phospho-ERK1/2 (n=6; see Methods).

Q: Which “regulation of PR target genes in cells expressing KR PR” value [1] does the source give for `C/C=C\[C@]1(O)CC[C@H]2[C@@H]3CCC4=CC(=O)CCC4=C3[C@@H](c3ccc(N(C)C)cc3)C[C@@]21C` [aglepristone] here?
A: substantially regulate multiple genes in cells expressing KR PR

Q: And the “PR Ser294 phosphorylation, ligand alone” value ([2]; 1 hour)?
A: stimulated robust PR Ser294 phosphorylation

Q: And the “PR Ser294 phosphorylation in the presence of progesterone (co-treatment)” value ([2]; progesterone plus antiprogestin)?
A: also induced Ser294 phosphorylation

Q: With `CC/C(=C(\c1ccccc1)c1ccc(OCCN(C)C)cc1)c1ccccc1` [tamoxifen] as the compound, how does the “women suffering tumor relapse” value (breast cancer) read?
A: ~40%

Q: With `C[C@]12CC[C@@H]3c4ccc(O)cc4CC[C@H]3[C@@H]1CC[C@@H]2O` [estrogen, estradiol] as the compound, how does the “total numbers of primary and secondary mammospheres on addition of hormone to culture media” value (T47D cells) read?
A: had no significant effect on total numbers in any condition

Q: For `N#CC(=C(/N)Sc1ccccc1N)/C(C#N)=C(\N)Sc1ccccc1N` [U0126], which “effect on progesterone-induced PR Ser294 phosphorylation in tumor explants” value [3] is on record?
A: blocked
